According to ChEMBL document CHEMBL4402522, “Exploring the new horizons of drug repurposing: A vital tool for turning hard work into smart work” (2019):

Experiments:
C6 [1] = assay: (§1) Antitumour activity against rat C6 cells implanted in Wistar rat assessed as reduction in reactive astrocytes induced peri-tumoral areas at 25 mg/kg, ip administered on alternate days in total 3 doses and measured on day 7 co-treated with temozolomide by immunohistochemical analysis relative to control; format: functional; parameters: scale not given: the % may be the effect or the level left
C6 [2] = assay: as §1, with “induced” for “induced peri-tumoral”, “areas of blood vessels” for “areas”; format: functional; parameters: scale not given: the % may be the effect or the level left

Q: `CC[C@H](CO)Nc1nc(NCc2ccccc2)c2ncn(C(C)C)c2n1` [SELICICLIB] was tested. Which Activity (C6 [1]) did it give?
A: 100%

Q: And the Activity (C6 [2])?
A: 100%
